Values quoted from earlier work as cited in patent US20060024344A1 (priority 2004, published 2006).
“Also recorded” adds a separate entry of the source.

Key:
Details in all cases: in vivo
[1] = system: fish in schoold
[2] = system: rainbow trout, blugill and channel catfish
[3] = system: human tongue
[4] = system: human skin
[5] = system: sharks
[6] = system: sharks; remark: listed apart in the source
[7] = system: captive lemon sharks
[8] = system: sharks; remark: listed apart in the source

Molecule	observed effect on fish [1]	efficiency to repel sharks [6]	other results
C=CCN=C=S [allyl isothiocyanate]	strongly stimulated the entire body		
COc1ccc(O)c(C(C)(C)C)c1 [butylated hydroxyanisole]			toxicity for fishes compared with zebra mussel [2]: substantially greater
COc1cc(CNC(=O)CCCC/C=C/C(C)C)ccc1O [capsaicin, 8-methyl-n-vanillyl-6-nonenamide]			concentration at which detected in humans [3]: 0.1 µg/mL; concentration provoking a sensation of perceptible warmth on tongue [3]: 1 µg/mL; concentration provoking a sensation of persistent burning on tongue [3]: 10 µg/mL; skin reaction (flare, irritation) [4]: no flare and irritation; skin temperature below which burning pain and hyperaesthesia cease completely [4]: below 28 deg C.; concentration producing perceptible warmth at subcutaneous and intramuscular level ([4]; sc): 10 µg/mL; concentration producing persistent burning at subcutaneous and intramuscular level ([4]; sc): 100 µg/mL
CCS [ethyl mercaptan]	induced tetanic paralysis		
CC1(C)[C@@H]2CC[C@@]1(C)[C@H](OC(=O)CSC#N)C2 [isobornyl thiocyanoacetate]	induced tetanic paralysis		
CC(=O)OC[C@H](C)CCC[C@@H](C)[C@H]1CCC2C3C(C[C@H](O)[C@@]21C)[C@@]1(C)CC[C@@H](O)C[C@H]1C[C@H]3O[C@@H]1O[C@H](CO)[C@H](O)[C@H](O)[C@H]1O (stereo partly drawn) [mosesin-4]			shark repellent activity [5]: shows shark repellent activity
O=C(CBr)c1ccccc1 [phenacyl bromide]	seriously irritated the eyes and impaired vision		
O=C(CCl)c1ccccc1 [phenacyl chloride]	seriously irritated the eyes and impaired vision		
Oc1ccccc1 [phenol]	strongly stimulated the entire body		
O=S([O-])O.[Na+] [sodium bisulfite]	respiratory impairment		
CCCCCCCCCCOS(=O)(=O)[O-].[Na+] [sodium decyl sulfate]		revealed efficiency to repel sharks	
CCCCCCCCCCCCOS(=O)(=O)[O-].[Na+] [sodium dodecyl sulfate]		revealed efficiency to repel sharks	shark repellent effect [7]: strongly repelled sharks
CCCCCCCCCCCCCCCCCCOS(=O)(=O)[O-].[Na+] [sodium octadecyl sulfate]		revealed efficiency to repel sharks	
CCCCCCCCOS(=O)(=O)[O-].[Na+] [sodium octyl sulfate]		revealed efficiency to repel sharks	
CCCCCCCCCCCCCCOS(=O)(=O)[O-].[Na+] [sodium tetradecyl sulfate]		revealed efficiency to repel sharks	
O=C(OC[C@H]1O[C@@H](OC(=O)c2cc(O)c(O)c(OC(=O)c3cc(O)c(O)c(O)c3)c2)[C@H](OC(=O)c2cc(O)c(O)c(OC(=O)c3cc(O)c(O)c(O)c3)c2)[C@@H](OC(=O)c2cc(O)c(O)c(OC(=O)c3cc(O)c(O)c(O)c3)c2)[C@@H]1OC(=O)c1cc(O)c(O)c(OC(=O)c2cc(O)c(O)c(O)c2)c1)c1cc(O)c(O)c(OC(=O)c2cc(O)c(O)c(O)c2)c1 [tannic acid]			toxicity for fishes compared with zebra mussel [2]: substantially greater
N#CSCCCCC(Cl)(Cl)Cl [thiocyanic acid 5,5,5-trichloro amyl ester]	flaccid paralysis; also recorded: respiratory impairment		
copper acetate			effectivity as a shark deterrent [8]: reduced effectivity as a deterrent
magnesium dodecyl sulfate		revealed efficiency to repel sharks	
sodium dodecyl ether sulfate		revealed efficiency to repel sharks	
